The target of test [1] is human KHK-C (Homo sapiens (Human), UniProt P50053). Kind of test: KHK enzyme activity assay, human KHK-C (F1P production, RapidFire MS). The test is classed as biochemical. Particulars: fructose 250 μM, ATP 150 μM; average ± SEM; read-out: hKHK-C IC50. The procedure:
(§1) KHK Enzyme Activity Assay for Human KHK-C and Human KHK-A
(§2) The intrinsic potency for inhibition of KHK C or A activity may be measured using an enzymatic assay which measures the production of FIP. Compounds are prepared in DMSO and tested in a 10-point concentration curve, to create 3-fold serial dilutions of the compounds in a 96-well plate ranging from 20 μM to 1.02 nM. Enzyme is prepared in assay buffer [50 mM 4-(2-hydroxyethyl)piperazine-1-ethanesulfonic acid (HEPES), 10 mM potassium chloride, 100 mM magnesium chloride, 2 mM tris(2-carboxyethyl)phosphine (TCEP), 0.01% n-octyl glucoside] and incubated with compounds at RT for 15 min. The reaction is carried out in 100 μL volumes containing substrate concentrations of fructose (250 μM for KHK-C assay and 1.25 mM for KHK-A assay) and ATP (150 μM for both isoforms); which are further incubated at RT for 20 min. The reaction is then halted by the addition of stop buffer; consisting of 0.2% formic acid and 1 μg/ml ^13C6-fructose-6-phosphate (^13C6-F6P) internal standard. Plates are stored in −20° C. until RapidFire MS analysis.
(§3) RapidFire MS Analysis for Quantitation of F1P
(§4) An Agilent 300 RapidFire automated extraction system (Agilent, Santa Clara, Calif.) with three HPLC quaternary pumps is coupled to an Agilent 6495 triple quadrupole mass spectrometer (Agilent Technologies, Santa Clara, Calif.) equipped with an electrospray ionization (ESI) interface source. The RapidFire Mass Spec system is equipped with a reusable RapidFire C18 (type C) solid-phase extraction (SPE) cartridge (G9205 Å).
(§5) Solvent A, used for sample loading and washing, is 6 mM octylamine (Acros Organics 129495000) brought to pH 5.0 using acetic acid. Solvent B, used for sample elution, is 20% water in ACN containing 0.1% formic acid. Samples are sequentially analyzed by aspirating 10 μL onto the collection loop under vacuum directly from multiwell plates. The 10 μL of sample is loaded onto the C18 cartridge and washed using solvent A at a flow rate of 1.25 mL/min for 5000 ms. The retained analytes are then eluted to the mass spectrometer using solvent B at a flow rate of 1.25 mL/min for 5000 ms. The system is re-equilibrated using solvent at flow rate of 1.25 mL/min for 2000 ms.
(§6) The triple quadrupole mass spectrometer is equipped with an ESI source and analytes are monitored using selected reaction monitoring (SRM) in negative mode [M−H]−. F1P is monitored at m/z 259.02/96.9 and ^13C6-fructose-6-phosphate is monitored at m/z 264.99/97. The area ratio values for F1P is calculated using ^13C6-fructose-6-phospate as internal standard.

The target of test [2] is human KHK-A (Homo sapiens (Human), UniProt P50053). Kind of test: KHK enzyme activity assay, human KHK-A (F1P production, RapidFire MS). As to conditions: fructose 1.25 mM, ATP 150 μM; average ± SEM; read-out: hKHK-A IC50. It is filed as biochemical. The procedure:
as §1, §2, §3, §4, §5, §6

Sequence of human KHK-A (P50053 other isoform, or with tags, fused parts or gaps): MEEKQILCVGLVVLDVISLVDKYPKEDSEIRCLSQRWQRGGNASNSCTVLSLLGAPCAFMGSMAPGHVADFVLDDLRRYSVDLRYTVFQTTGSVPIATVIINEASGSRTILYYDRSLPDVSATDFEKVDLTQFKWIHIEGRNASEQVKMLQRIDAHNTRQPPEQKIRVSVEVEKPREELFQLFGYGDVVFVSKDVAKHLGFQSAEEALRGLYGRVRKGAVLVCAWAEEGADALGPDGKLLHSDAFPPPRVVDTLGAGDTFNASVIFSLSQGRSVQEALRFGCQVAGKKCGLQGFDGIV
Sequence of human KHK-C (P50053 whole entry): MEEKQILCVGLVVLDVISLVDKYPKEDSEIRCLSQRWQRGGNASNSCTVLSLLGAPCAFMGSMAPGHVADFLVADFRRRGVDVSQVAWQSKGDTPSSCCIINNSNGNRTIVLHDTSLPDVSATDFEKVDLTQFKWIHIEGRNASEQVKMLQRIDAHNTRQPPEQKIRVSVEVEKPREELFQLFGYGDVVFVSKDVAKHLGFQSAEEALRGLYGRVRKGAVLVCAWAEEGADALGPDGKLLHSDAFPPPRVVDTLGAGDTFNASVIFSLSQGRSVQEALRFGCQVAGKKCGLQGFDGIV

Usually IC50 stands for the concentration at which inhibition is half-maximal. On to `C[C@H]1CCN1c1nc(-c2cnn(C3CNC3)c2)cc(C(F)(F)F)n1` [Example 33, 4-[1-(Azetidin-3-yl)pyrazol-4-yl]-2-[(2S)-2-methylazetidin-1-yl]-6-(trifluoromethyl)pyrimidine], for which the IC50 in test [1] stood at 4.9 ± 1.31 nM; in test [2], 3.63 ± 1.13 nM.
`C[C@H]1CCN1c1nc(-c2cnn(CC(=O)N3C[C@H](O)[C@@H](O)C3)c2)cc(C(F)(F)F)c1C#N` [Example 23, 6-[1-[2-[(3S,4S)-3,4-Dihydroxypyrrolidin-1-yl]-2-oxo-ethyl]pyrazol-4-yl]-2-[(2S)-2-methylazetidin-1-yl]-4-(trifluoromethyl)pyridine-3-carbonitrile]: the results for the IC50 in test [1] and in test [2] were 41.6 ± 47.1 nM and 24.9 ± 15.3 nM, respectively.
In the case of `C[C@H]1CCN1c1nc(-c2cnn(C3CCOCC3)c2)cc(C(F)(F)F)c1C#N` [Example 26, 2-[(2S)-2-Methylazetidin-1-yl]-6-(1-tetrahydropyran-4-ylpyrazol-4-yl)-4-(trifluoromethyl)pyridine-3-carbonitrile], the IC50 in test [1] came out at 28.4 nM; in test [2], 22.2 nM.
For the compound `C[C@H]1[C@H](O)CN1c1nc(-c2cnn([C@@H]3CCNC3)c2)cc(C(F)(F)F)n1` [Example 14, (2S,3R)-2-Methyl-1-[4-[1-[(3R)-pyrrolidin-3-yl]pyrazol-4-yl]-6-(trifluoromethyl)pyrimidin-2-yl]azetidin-3-ol], the figures for the IC50 in test [1] and in test [2] were 15.9 ± 4.37 nM and 19.1 ± 2.98 nM, respectively.
On to `C[C@H]1CCN1c1nc(-c2cnn(C3CNC3)c2)cc(C(F)(F)F)c1C#N` [Example 17, 6-[1-(Azetidin-3-yl)pyrazol-4-yl]-2-[(2S)-2-methylazetidin-1-yl]-4-(trifluoromethyl)pyridine-3-carbonitrile], for which the values for the IC50 in test [1] and in test [2] were 16.1 ± 7.96 nM and 13.2 ± 12.7 nM, respectively.
As to `C[C@H]1CCN1c1nc(-c2cnn(C3CCNCC3)c2)cc(C(F)(F)F)n1` [Example 13, 2-[(2S)-2-Methylazetidin-1-yl]-4-[1-(4-piperidyl)pyrazol-4-yl]-6-(trifluoromethyl)pyrimidine], the IC50 in test [1] stood at 15.5 ± 20.4 nM; in test [2] it was 7.69 ± 7.97 nM.
As for `C[C@H]1CCN1c1nc(-c2cnn(CC(O)CO)c2)cc(C(F)(F)F)c1C#N` (single isomer, unassigned; isomer 1) [Example 24a], the IC50 in test [1] is 6.06 nM; in test [2] it was 9.99 nM.
Take `C[C@H]1[C@H](O)CN1c1nc(-c2cnn(C3CN(C)C3)c2)cc(C(F)(F)F)n1` [Example 35, (2S,3R)-2-Methyl-1-[4-[1-(1-methylazetidin-3-yl)pyrazol-4-yl]-6-(trifluoromethyl)pyrimidin-2-yl]azetidin-3-ol]: the IC50 in test [1] is 2.63 nM; in test [2], 1.59 nM.
With `C[C@H]1CCN1c1nc(-c2cnn(C3CCNCC3)c2)cc(C(F)(F)F)c1C#N` [Example 12, 2-[(2S)-2-Methylazetidin-1-yl]-6-[1-(4-piperidyl)pyrazol-4-yl]-4-(trifluoromethyl)pyridine-3-carbonitrile], the IC50 in test [1] is 3.87 ± 0.391 nM; in test [2] it was 3.65 ± 0.817 nM.
The matching figures for `C[C@H]1CCN1c1nc(-c2cnn(CCN(C)C)c2)cc(C(F)(F)F)c1C#N` [Example 10, 6-[1-[2-(Dimethylamino)ethyl]pyrazol-4-yl]-2-[(2S)-2-methylazetidin-1-yl]-4-(trifluoromethyl)pyridine-3-carbonitrile]: 418 ± 503 nM and 246 ± 248 nM.
With `C[C@H]1CCN1c1nc(-c2cnn(C3CCNCC3O)c2)cc(C(F)(F)F)c1C#N` (stereo partly drawn) [Example 27, 6-[1-(3-Hydroxy-4-piperidyl)pyrazol-4-yl]-2-[(2S)-2-methylazetidin-1-yl]-4-(trifluoromethyl)pyridine-3-carbonitrile], the results for the IC50 in test [1] and in test [2] were 9.21 nM and 4.63 nM, respectively.
Turning to `C[C@H]1CCN1c1nc(-c2cnn(CC(=O)NCCN)c2)cc(C(F)(F)F)n1` [Example 28, N-(2-Aminoethyl)-2-[4-[2-[(2S)-2-methylazetidin-1-yl]-6-(trifluoromethyl)pyrimidin-4-yl]pyrazol-1-yl]acetamide], the IC50 in test [1] came to 68 nM; in test [2], 51 nM.
As for `C[C@H]1CCN1c1nc(-c2cnn(C3CCN(C)CC3)c2)cc(C(F)(F)F)c1C#N` [Example 8, 2-[(2S)-2-Methylazetidin-1-yl]-6-[1-(1-methyl-4-piperidyl)pyrazol-4-yl]-4-(trifluoromethyl)pyridine-3-carbonitrile], the IC50 came to 56.1 ± 62.5 nM in test [1] and 25.2 ± 15.7 nM in test [2].
As for `C[C@H]1CNCCN1C(=O)Cn1cc(-c2cc(C(F)(F)F)nc(N3CC[C@@H]3C)n2)cn1` [Example 30, 2-[4-[2-[(2S)-2-Methylazetidin-1-yl]-6-(trifluoromethyl)pyrimidin-4-yl]pyrazol-1-yl]-1-[(2S)-2-methylpiperazin-1-yl]ethanone], the values for the IC50 in test [1] and in test [2] were 46.3 nM and 57.8 nM, respectively.
For the compound `C[C@H]1CCN1c1nc(-c2cnn(C3CN(C)C3)c2)cc(C(F)(F)F)n1` [Example 34, 2-[(2S)-2-Methylazetidin-1-yl]-4-[1-(1-methylazetidin-3-yl)pyrazol-4-yl]-6-(trifluoromethyl)pyrimidine], the IC50 is 3.71 ± 0.178 nM in test [1] and 5.41 ± 6.13 nM in test [2].
The matching figures for `C[C@H]1CCN1c1nc(-c2cn[nH]c2)cc(C(F)(F)F)c1C#N` [Example 25, 2-[(2S)-2-Methylazetidin-1-yl]-6-(1H-pyrazol-4-yl)-4-(trifluoromethyl)pyridine-3-carbonitrile]: 13.6 ± 7.2 nM and 16.9 ± 9.7 nM.
On to `C[C@H]1CCN1c1nc(-c2cnn(CC(=O)N3CCNC(C)(C)C3)c2)cc(C(F)(F)F)n1` [Example 31, 1-(3,3-Dimethylpiperazin-1-yl)-2-[4-[2-[(2S)-2-methylazetidin-1-yl]-6-(trifluoromethyl)pyrimidin-4-yl]pyrazol-1-yl]ethanone], for which the values for the IC50 in test [1] and in test [2] were 34.7 nM and 70.5 nM, respectively.
As to `C[C@H]1CN(C(=O)Cn2cc(-c3cc(C(F)(F)F)nc(N4CC[C@@H]4C)n3)cn2)CCN1` [Example 29, 2-[4-[2-[(2S)-2-Methylazetidin-1-yl]-6-(trifluoromethyl)pyrimidin-4-yl]pyrazol-1-yl]-1-[(3S)-3-methylpiperazin-1-yl]ethanone], the IC50 in test [1] turned out to be 38.6 nM; in test [2], 103 nM.
`OC[C@H]1CCN1c1nc(-c2cnn([C@@H]3CCNC3)c2)cc(C(F)(F)F)n1` [Example 16, [(2R)-1-[4-[1-[(3R)-Pyrrolidin-3-yl]pyrazol-4-yl]-6-(trifluoromethyl)pyrimidin-2-yl]azetidin-2-yl]methanol]: the figures for the IC50 in test [1] and in test [2] were 28 ± 17.3 nM and 30 ± 5.09 nM, respectively.
As to `C[C@H]1CCN1c1nc(-c2cnn(CC(=O)NCCO)c2)cc(C(F)(F)F)c1C#N` [Example 5, 2-[4-[5-Cyano-6-[(2S)-2-methylazetidin-1-yl]-4-(trifluoromethyl)-2-pyridyl]pyrazol-1-yl]-N-(2-hydroxyethyl)acetamide], the IC50 in test [1] is 57 ± 32.6 nM; in test [2], 37.7 ± 19.9 nM.
Taken in the same sequence, the figures for `CN1CC(n2cc(-c3cc(C(F)(F)F)nc(N4CC[C@@H]4CO)n3)cn2)C1` [Example 36, [(2R)-1-[4-[1-(1-Methylazetidin-3-yl)pyrazol-4-yl]-6-(trifluoromethyl)pyrimidin-2-yl]azetidin-2-yl]methanol] were 10 nM and 3.98 nM.
For the compound `C[C@H]1CCN1c1nc(-c2cnn(CC(=O)N(CCO)CCO)c2)cc(C(F)(F)F)c1C#N` [Example 21, 2-[4-[5-Cyano-6-[(2S)-2-methylazetidin-1-yl]-4-(trifluoromethyl)-2-pyridyl]pyrazol-1-yl]-N,N-bis(2-hydroxyethyl)acetamide], the IC50 came to 55.2 ± 28.1 nM in test [1] and 39.2 ± 13.6 nM in test [2].
In the case of `OC[C@H]1CCN1c1nc(-c2cnn(C3CNC3)c2)cc(C(F)(F)F)n1` [Example 3, [(2R)-1-[4-[1-(Azetidin-3-yl)pyrazol-4-yl]-6-(trifluoromethyl)pyrimidin-2-yl]azetidin-2-yl]methanol], the IC50 worked out at 41.9 ± 6.77 nM in test [1] and 45.4 ± 29.5 nM in test [2].
For `C[C@H]1[C@H](O)CN1c1nc(-c2cnn(C3CNC3)c2)cc(C(F)(F)F)n1` [Example 4, (2S,3R)-1-[4-[1-(Azetidin-3-yl)pyrazol-4-yl]-6-(trifluoromethyl)pyrimidin-2-yl]-2-methyl-azetidin-3-ol], the results for the IC50 in test [1] and in test [2] were 14.4 ± 1.12 nM and 11.4 ± 4.34 nM, respectively.

(Values after patent publication US11124500B2, “Disubstituted pyrazole compounds” (Eli Lilly and Company, priority 2019, dated 2021).)
